Drawing on US9409884B2 (Rigel Pharmaceuticals, Inc., priority 2012, dated 2016), this text covers EC50 for 27 molecules.

Structures are written as SMILES.

The first assay addresses AMPK. In words: AMPK activation, enzyme-linked immunosorbent assay. Type of assay: biochemical. The conditions noted are these: Table 8, compounds of Table 1. A digest of the protocol: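 AMPK activation by test compounds was measured by enzyme-linked immunosorbent assay.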
On to `Fc1ccc(CN2CCC(NC3CCc4cc(OC5CCN(c6ccc(C(F)(F)F)cc6)CC5)ccc43)CC2)cc1` (stereo not drawn) [Compound 1-159, 1-(4-fluorobenzyl)-N-(5-(1-(4-(trifluoromethyl)phenyl)piperidin-4-yloxy)-2,3-dihydro-1H-inden-1-yl)piperidin-4-amine], for which the EC50 – broadly, the concentration giving half of the maximal effect – lay within 100 to 500 nM.
`N#Cc1ccc(CN2CCC(NC3CCc4cc(OC5CCN(c6ccc(C(F)(F)F)cc6)CC5)ccc43)CC2)cc1` (stereo not drawn) [Compound 1-160, 4-((4-(5-(1-(4-(trifluoromethyl)phenyl)piperidin-4-yloxy)-2,3-dihydro-1H-inden-1-ylamino)piperidin-1-yl)methyl)benzonitrile]: the EC50 was less than 100 nM.
Same read-out and setting: the same measure for `N#Cc1ccc(CN2CCC(NC(=O)c3cc4ccc(OC5CCN(Cc6cnn(-c7ccc(C#N)cc7)c6)CC5)cc4o3)CC2)cc1` [Compound 1-161, N-(1-(4-cyanobenzyl)piperidin-4-yl)-6-(1-((1-(4-cyanophenyl)-1H-pyrazol-4-yl)methyl)piperidin-4-yloxy)benzofuran-2-carboxamide]: 500 to 1000 nM; for `N#Cc1ccc(CN2CCC(NC(=O)c3cc4cc(OC5CCN(Cc6cnn(-c7ccc(C#N)cc7)c6)CC5)ccc4o3)CC2)cc1` [Compound 1-162, N-(1-(4-cyanobenzyl)piperidin-4-yl)-5-(1-((1-(4-cyanophenyl)-1H-pyrazol-4-yl)methyl)piperidin-4-yloxy)benzofuran-2-carboxamide]: less than 100 nM; for `N#Cc1ccc(CN2CCC(NC(=O)c3cc4cc(OC5CCN(C(=O)c6ccc(-n7cccn7)cc6)CC5)ccc4o3)CC2)cc1` [Compound 1-163, 5-(1-(4-(1H-pyrazol-1-yl)benzoyl)piperidin-4-yloxy)-N-(1-(4-cyanobenzyl)piperidin-4-yl)benzofuran-2-carboxamide]: less than 100 nM.
For the molecule `N#Cc1ccc(CN2CCC(NC(=O)c3cc4cc(O[C@@H]5CCN(Cc6ccc(-n7cccn7)cc6)C[C@H]5F)ccc4o3)CC2)cc1` [Compound 1-164, 5-((3,4-trans)-1-(4-(1H-pyrazol-1-yl)benzyl)-3-fluoropiperidin-4-yloxy)-N-(1-(4-cyanobenzyl)piperidin-4-yl)benzofuran-2-carboxamide], the EC50 lay in the range of 100 to 500 nM.
As to `N#Cc1ccc(CN2CCC(NC(=O)c3cc4cc(O[C@@H]5CCN(Cc6ccc(Oc7ccc(F)cc7)cc6)C[C@H]5F)ccc4o3)CC2)cc1` [Compound 1-165, N-(1-(4-cyanobenzyl)piperidin-4-yl)-5-((3,4-trans)-3-fluoro-1-(4-(4-fluorophenoxy)benzyl)piperidin-4-yloxy)benzofuran-2-carboxamide], the 50% effective concentration (EC50) was less than 100 nM.
Molecule `N#Cc1ccc(CN2CCC(NC(=O)c3cc4cc(O[C@@H]5CCN(Cc6cnn(-c7ccc(C#N)cc7)c6)C[C@H]5F)ccc4o3)CC2)cc1` [Compound 1-166, N-(1-(4-cyanobenzyl)piperidin-4-yl)-5-((3,4-trans)-1-((1-(4-cyanophenyl)-1H-pyrazol-4-yl)methyl)-3-fluoropiperidin-4-yloxy)benzofuran-2-carboxamide] returned an EC50 of less than 100 nM.
On to `CS(=O)(=O)c1ccc(CN2CC[C@@H](Oc3ccc4oc(C(=O)NC5CCN(Cc6ccc(C#N)cc6)CC5)cc4c3)[C@H](F)C2)cc1` [Compound 1-167, N-(1-(4-cyanobenzyl)piperidin-4-yl)-5-((3,4-trans)-3-fluoro-1-(4-(methylsulfonyl)benzyl)piperidin-4-yloxy)benzofuran-2-carboxamide], for which the EC50 is less than 100 nM.
For `N#Cc1ccc(CN2CCC(NC(=O)c3cc4cc(O[C@@H]5CCN(Cc6ccc(OC(F)(F)F)cc6)C[C@H]5F)ccc4o3)CC2)cc1` [Compound 1-168, N-(1-(4-cyanobenzyl)piperidin-4-yl)-5-((3,4-trans)-3-fluoro-1-(4-(trifluoromethoxy)benzyl)piperidin-4-yloxy)benzofuran-2-carboxamide], the EC50 was less than 100 nM.
Turning to `O=C(NC1CCN(Cc2ccc(OC(F)(F)F)cc2)CC1)c1cc2cc(O[C@@H]3CCN(Cc4ccc(-n5cccn5)cc4)C[C@H]3F)ccc2o1` [Compound 1-169, 5-((3,4-trans)-1-(4-(1H-pyrazol-1-yl)benzyl)-3-fluoropiperidin-4-yloxy)-N-(1-(4-(trifluoromethoxy)benzyl)piperidin-4-yl)benzofuran-2-carboxamide], the EC50 is less than 100 nM.
On the same count and under the same terms, the same measure for `O=C(NC1CCN(Cc2ccc(OC(F)(F)F)cc2)CC1)c1cc2cc(O[C@@H]3CCN(Cc4ccc(Oc5ccc(F)cc5)cc4)C[C@H]3F)ccc2o1` [Compound 1-170, 5-((3,4-trans)-3-fluoro-1-(4-(4-fluorophenoxy)benzyl)piperidin-4-yloxy)-N-(1-(4-(trifluoromethoxy)benzyl)piperidin-4-yl)benzofuran-2-carboxamide]: less than 100 nM.
The same measure, in the same setting: as for `N#Cc1ccc(-n2cc(CN3CC[C@@H](Oc4ccc5oc(C(=O)NC6CCN(Cc7ccc(OC(F)(F)F)cc7)CC6)cc5c4)[C@H](F)C3)cn2)cc1` [Compound 1-171, 5-((3,4-trans)-1-((1-(4-cyanophenyl)-1H-pyrazol-4-yl)methyl)-3-fluoropiperidin-4-yloxy)-N-(1-(4-(trifluoromethoxy)benzyl)piperidin-4-yl)benzofuran-2-carboxamide], the figure is less than 100 nM; as for `CS(=O)(=O)c1ccc(CN2CC[C@@H](Oc3ccc4oc(C(=O)NC5CCN(Cc6ccc(OC(F)(F)F)cc6)CC5)cc4c3)[C@H](F)C2)cc1` [Compound 1-172, 5-((3,4-trans)-3-fluoro-1-(4-(methylsulfonyl)benzyl)piperidin-4-yloxy)-N-(1-(4-(trifluoromethoxy)benzyl)piperidin-4-yl)benzofuran-2-carboxamide], less than 100 nM; as for `O=C(NC1CCN(Cc2ccc(OC(F)(F)F)cc2)CC1)c1cc2cc(O[C@@H]3CCN(Cc4ccc(OC(F)(F)F)cc4)C[C@H]3F)ccc2o1` [Compound 1-173, 5-((3,4-trans)-3-fluoro-1-(4-(trifluoromethoxy)benzyl)piperidin-4-yloxy)-N-(1-(4-(trifluoromethoxy)benzyl)piperidin-4-yl)benzofuran-2-carboxamide], less than 100 nM.
Take `N#Cc1ccc(CN2CCC(NC(=O)c3cc4cc(OC5CCN(Cc6ccc(C(F)(F)F)cc6)CC5)ccc4o3)CC2)cc1` [Compound 1-174, N-(1-(4-cyanobenzyl)piperidin-4-yl)-5-(1-(4-(trifluoromethyl)benzyl)piperidin-4-yloxy)benzofuran-2-carboxamide]: the EC50 is less than 100 nM.
Take `CS(=O)(=O)c1ccc(CN2CCC(Oc3ccc4oc(C(=O)NC5CCN(Cc6ccc(C#N)cc6)CC5)cc4c3)CC2)cc1` [Compound 1-175, N-(1-(4-cyanobenzyl)piperidin-4-yl)-5-(1-(4-(methylsulfonyl)benzyl)piperidin-4-yloxy)benzofuran-2-carboxamide]: the EC50 is less than 100 nM.

The same assay, now with this note: Table 9, compounds of Table 2.
With `N#Cc1ccc(CN2CCC(NC(=O)c3ccc4[nH]c5c(c4c3)CN(C(=O)OCc3ccccc3)CC5)CC2)cc1` [Compound 2-1, benzyl 8-(1-(4-cyanobenzyl)piperidin-4-ylcarbamoyl)-3,4-dihydro-1H-pyrido[4,3-b]indole-2(5H)-carboxylate], the EC50 fell in the range of 1000 to 5000 nM.
As for `O=C(NC1CCN(Cc2ccccc2)CC1)c1ccc2[nH]c3c(c2c1)CN(C(=O)OCc1ccccc1)CC3` [Compound 2-2, benzyl 8-(1-(4-benzyl)piperidin-4-ylcarbamoyl)-3,4-dihydro-1H-pyrido[4,3-b]indole-2(5H)-carboxylate], the EC50 is 10000 to 50000 nM.
The molecule `CC(C)(C)OC(=O)N1CCC(NC(=O)c2ccc3[nH]c4c(c3c2)CN(C(=O)OCc2ccccc2)CC4)CC1` [Compound 2-3, benzyl 8-(1-(tert-butoxycarbonyl)piperidin-4-ylcarbamoyl)-3,4-dihydro-1H-pyrido[4,3-b]indole-2(5H)-carboxylate] yielded an EC50 of 10000 to 50000 nM.
Still for that read-out and setting: the same measure for `N#Cc1ccc(CN2CCC(NC(=O)c3ccc4[nH]c5c(c4c3)CN(Cc3ccccc3)CC5)CC2)cc1` [Compound 2-4, 2-benzyl-N-(1-(4-cyanobenzyl)piperidin-4-yl)-2,3,4,5-tetrahydro-1H-pyrido[4,3-b]indole-8-carboxamide]: 1000 to 5000 nM; for `O=C(NC1CCN(Cc2ccc(C(F)(F)F)cc2)CC1)c1ccc2[nH]c3c(c2c1)CN(Cc1ccccc1)CC3` [Compound 2-5, 2-benzyl-N-(1-(4-trifluoromethylbenzyl)piperidin-4-yl)-2,3,4,5-tetrahydro-1N-pyrido[4,3-b]indole-8-carboxamide]: 1000 to 5000 nM; for `CC(C)(C)OC(=O)N1CCC(NC(=O)c2ccc3[nH]c4c(c3c2)CN(Cc2ccc(C(F)(F)F)cc2)CC4)CC1` [Compound 2-6, tert-butyl 4-(2-(4-(trifluoromethyl)benzyl)-2,3,4,5-tetrahydro-1H-pyrido[4,3-b]indole-8-carboxamido)piperidine-1-carboxylate]: 500 to 1000 nM.
Turning to `O=C(NC1CCN(Cc2ccncc2)CC1)c1ccc2[nH]c3c(c2c1)CN(Cc1ccccc1)CC3` [Compound 2-7, 2-benzyl-N-(1-(pyridin-4-ylmethyl)piperidin-4-yl)-2,3,4,5-tetrahydro-1H-pyrido[4,3-b]indole-8-carboxamide], the EC50 fell in the range of 5000 to 10000 nM.
The same measure, in the same setting: the same measure for `O=C(NC1CCN(Cc2cccnc2)CC1)c1ccc2[nH]c3c(c2c1)CN(Cc1ccc(F)cc1)CC3` [Compound 2-8, 2-(4-fluorobenzyl)-N-(1-(pyridin-3-ylmethyl)piperidin-4-yl)-2,3,4,5-tetrahydro-1H-pyrido[4,3-b]indole-8-carboxamide]: 5000 to 10000 nM; for `N#Cc1ccc(CN2CCC(NC(=O)c3ccc4[nH]c5c(c4c3)CN(Cc3ccc(F)cc3)CC5)CC2)cc1` [Compound 2-9, N-(1-(4-cyanobenzyl)piperidin-4-yl)-2-(4-fluorobenzyl)-2,3,4,5-tetrahydro-1H-pyrido[4,3-b]indole-8-carboxamide]: less than 500 nM.
The molecule `O=C(NC1CCN(Cc2ccc(C(F)(F)F)cc2)CC1)c1ccc2[nH]c3c(c2c1)CN(Cc1ccc(F)cc1)CC3` [Compound 2-10, N-(1-(4-trifluoromethylbenzyl)piperidin-4-yl)-2-(4-fluorobenzyl)-2,3,4,5-tetrahydro-1H-pyrido[4,3-b]indole-8-carboxamide] returned an EC50 of 500 to 1000 nM.
